Assay results: ChEMBL document CHEMBL1926560, “Synthesis, biological evaluation and molecular docking studies of resveratrol derivatives possessing curcumin moiety as potent antitubulin agents” (Bioorg Med Chem, 2012)
Values after ≈ are worked out from the molar mass of the structure shown.

Assays:
[1] = tested on: B16-F10; test: Antiproliferative activity against mouse B16F10 cells after 48 hrs by MTT assay; format: functional, cell-based; settings: B16-F10, 48 h
[2] = tested on: HepG2; test: Antiproliferative activity against human HepG2 cells after 48 hrs by MTT assay; format: functional, cell-based; settings: HepG2, 48 h
[3] = tested on: A549; test: Antiproliferative activity against human A549 cells after 48 hrs by MTT assay; format: functional, cell-based; settings: A549, 48 h
[4] = Inhibition of bovine brain tubulin polymerization after 20 mins by turbidimetry; set-up: species or system Bos taurus
[5] = tested on: B16-F10; test: Cell cycle arrest in mouse B16F10 cells assessed as accumulation at Go/G1 phase at 1 ug/ml after 24 hrs using propidium iodide staining by flow cytometry (reference value: 68 %); format: functional
[6] = tested on: B16-F10; test: Cell cycle arrest in mouse B16F10 cells assessed as accumulation at S phase at 1 ug/ml after 24 hrs using propidium iodide staining by flow cytometry (reference value: 12 %); format: functional
[7] = tested on: B16-F10; test: Cell cycle arrest in mouse B16F10 cells assessed as accumulation at G2/M phase at 1 ug/ml after 24 hrs using propidium iodide staining by flow cytometry (reference value: 18 %); format: functional
[8] = tested on: B16-F10; test: Ratio of resveratrol IC50 to compound IC50 for mouse B16F10 cells; format: functional

IC50 [1] [mg/L]	IC50 [2] [mg/L]	IC50 [3] [mg/L]	IC50 [4] [mg/L]	SMILES	Activity [5] [%]	Activity [6] [%]	Activity [7] [%]	Ratio IC50 [8]
2.66 (≈ 6.24 µM)	4.79 (≈ 11.2 µM)	5.25 (≈ 12.3 µM)	6.28 (≈ 14.7 µM)	COc1ccc(/C=C/c2cc(OC)cc(OC)c2/C=C/C(=O)/C=C/c2ccccc2)cc1				
2.13 (≈ 4.67 µM)	5.82 (≈ 12.7 µM)	6.49 (≈ 14.2 µM)	5.99 (≈ 13.1 µM)	COc1ccc(/C=C/c2cc(OC)cc(OC)c2/C=C/C(=O)/C=C/c2ccccc2OC)cc1				
2.72 (≈ 5.96 µM)	8.52 (≈ 18.7 µM)	7.66 (≈ 16.8 µM)	8.05 (≈ 17.6 µM)	COc1ccc(/C=C/c2cc(OC)cc(OC)c2/C=C/C(=O)/C=C/c2cccc(OC)c2)cc1				
2.4 (≈ 5.26 µM)	6.99 (≈ 15.3 µM)	7.65 (≈ 16.8 µM)	2.89 (≈ 6.33 µM)	COc1ccc(/C=C/C(=O)/C=C/c2c(/C=C/c3ccc(OC)cc3)cc(OC)cc2OC)cc1				
0.71 (≈ 1.46 µM)	1.6 (≈ 3.29 µM)	2.1 (≈ 4.32 µM)	1.45 (≈ 2.98 µM)	COc1ccc(/C=C/c2cc(OC)cc(OC)c2/C=C/C(=O)/C=C/c2cc(OC)cc(OC)c2)cc1	28	14	52	50
1.3 (≈ 2.67 µM)	2.78 (≈ 5.71 µM)	4.09 (≈ 8.41 µM)	2.11 (≈ 4.34 µM)	COc1ccc(/C=C/c2cc(OC)cc(OC)c2/C=C/C(=O)/C=C/c2cc(OC)ccc2OC)cc1				
1.67 (≈ 3.79 µM)	4.58 (≈ 10.4 µM)	4.08 (≈ 9.26 µM)	3.08 (≈ 6.99 µM)	COc1ccc(/C=C/c2cc(OC)cc(OC)c2/C=C/C(=O)/C=C/c2cccc(C)c2)cc1				
1.08 (≈ 2.45 µM)	2.37 (≈ 5.38 µM)	2.69 (≈ 6.11 µM)	2.68 (≈ 6.08 µM)	COc1ccc(/C=C/c2cc(OC)cc(OC)c2/C=C/C(=O)/C=C/c2ccc(C)cc2)cc1				
1.57 (≈ 3.45 µM)	4.12 (≈ 9.06 µM)	5.33 (≈ 11.7 µM)	3.57 (≈ 7.85 µM)	COc1ccc(/C=C/c2cc(OC)cc(OC)c2/C=C/C(=O)/C=C/c2ccc(C)c(C)c2)cc1				
2.51 (≈ 5.65 µM)	4.85 (≈ 10.9 µM)	8.01 (≈ 18 µM)		COc1ccc(/C=C/c2cc(OC)cc(OC)c2/C=C/C(=O)/C=C/c2ccccc2F)cc1				
5.94 (≈ 12.9 µM)	12.4 (≈ 27 µM)	15.2 (≈ 33 µM)		COc1ccc(/C=C/c2cc(OC)cc(OC)c2/C=C/C(=O)/C=C/c2ccccc2Cl)cc1				
3.09 (≈ 6.11 µM)	10.2 (≈ 20.3 µM)	9.37 (≈ 18.5 µM)		COc1ccc(/C=C/c2cc(OC)cc(OC)c2/C=C/C(=O)/C=C/c2ccccc2Br)cc1				
1.67 (≈ 3.76 µM)	2.65 (≈ 5.96 µM)	4.47 (≈ 10.1 µM)		COc1ccc(/C=C/c2cc(OC)cc(OC)c2/C=C/C(=O)/C=C/c2cccc(F)c2)cc1				
2.99 (≈ 6.49 µM)	6.94 (≈ 15.1 µM)	8.23 (≈ 17.9 µM)		COc1ccc(/C=C/c2cc(OC)cc(OC)c2/C=C/C(=O)/C=C/c2cccc(Cl)c2)cc1				
1.97 (≈ 3.9 µM)	5.52 (≈ 10.9 µM)	4.75 (≈ 9.4 µM)		COc1ccc(/C=C/c2cc(OC)cc(OC)c2/C=C/C(=O)/C=C/c2cccc(Br)c2)cc1				
1.81 (≈ 4.07 µM)	4.35 (≈ 9.79 µM)	5.83 (≈ 13.1 µM)		COc1ccc(/C=C/c2cc(OC)cc(OC)c2/C=C/C(=O)/C=C/c2ccc(F)cc2)cc1				
3.17 (≈ 6.88 µM)	8.29 (≈ 18 µM)	11.2 (≈ 24.2 µM)		COc1ccc(/C=C/c2cc(OC)cc(OC)c2/C=C/C(=O)/C=C/c2ccc(Cl)cc2)cc1				
2.44 (≈ 4.83 µM)	7.75 (≈ 15.3 µM)	7.89 (≈ 15.6 µM)		COc1ccc(/C=C/c2cc(OC)cc(OC)c2/C=C/C(=O)/C=C/c2ccc(Br)cc2)cc1				

IC50 [1] [mg/L]	IC50 [2] [mg/L]	IC50 [3] [mg/L]	IC50 [4] [mg/L]	SMILES	Activity [5] [%]	Activity [6] [%]	Activity [7] [%]	Ratio IC50 [8]
2.11 (≈ 4.26 µM)	4.67 (≈ 9.43 µM)	5.05 (≈ 10.2 µM)		COc1ccc(/C=C/c2cc(OC)cc(OC)c2/C=C/C(=O)/C=C/c2ccc(Cl)cc2Cl)cc1				
2.73 (≈ 5.51 µM)	9.49 (≈ 19.2 µM)	6.99 (≈ 14.1 µM)		COc1ccc(/C=C/c2cc(OC)cc(OC)c2/C=C/C(=O)/C=C/c2ccc(Cl)c(Cl)c2)cc1				
2.08 (≈ 4.2 µM)	3.28 (≈ 6.62 µM)	6.18 (≈ 12.5 µM)		COc1ccc(/C=C/c2cc(OC)cc(OC)c2/C=C/C(=O)/C=C/c2cc(Cl)cc(Cl)c2)cc1				
3.07 (≈ 6.2 µM)	9.31 (≈ 18.8 µM)	8.93 (≈ 18 µM)		COc1ccc(/C=C/c2cc(OC)cc(OC)c2/C=C/C(=O)/C=C/c2c(Cl)cccc2Cl)cc1				
1.79 (≈ 3.74 µM)	9.07 (≈ 18.9 µM)	4.65 (≈ 9.71 µM)		COc1ccc(/C=C/c2cc(OC)cc(OC)c2/C=C/C(=O)/C=C/c2ccc(F)c(Cl)c2)cc1				
2.23 (≈ 4.82 µM)	5.97 (≈ 12.9 µM)	6.23 (≈ 13.5 µM)		COc1ccc(/C=C/c2cc(OC)cc(OC)c2/C=C/C(=O)/C=C/c2ccc(F)c(F)c2)cc1				
1.8 (≈ 3.93 µM)	2.74 (≈ 5.98 µM)	3.98 (≈ 8.68 µM)		COc1ccc(/C=C/c2cc(OC)cc(OC)c2/C=C/C(=O)/C=C/c2cccc(F)c2C)cc1				
0.75 (≈ 1.64 µM)	1.96 (≈ 4.27 µM)	2.32 (≈ 5.06 µM)	1.81 (≈ 3.95 µM)	COc1ccc(/C=C/c2cc(OC)cc(OC)c2/C=C/C(=O)/C=C/c2cc(F)ccc2C)cc1				
3.1 (≈ 6.27 µM)	5.38 (≈ 10.9 µM)	4.97 (≈ 10.1 µM)		COc1ccc(/C=C/c2cc(OC)cc(OC)c2/C=C/C(=O)/C=C/c2cccc(C(F)(F)F)c2)cc1				
1.85 (≈ 3.5 µM)	6.79 (≈ 12.8 µM)	5.96 (≈ 11.3 µM)		COc1ccc(/C=C/c2cc(OC)cc(OC)c2/C=C/C(=O)/C=C/c2cc(C(F)(F)F)ccc2Cl)cc1				
3.43 (≈ 7.27 µM)	6.75 (≈ 14.3 µM)	11.7 (≈ 24.7 µM)		COc1ccc(/C=C/c2cc(OC)cc(OC)c2/C=C/C(=O)/C=C/c2ccccc2[N+](=O)[O-])cc1				
1.47 (≈ 3.12 µM)	2.44 (≈ 5.17 µM)	3.09 (≈ 6.55 µM)		COc1ccc(/C=C/c2cc(OC)cc(OC)c2/C=C/C(=O)/C=C/c2cccc([N+](=O)[O-])c2)cc1				
2.35 (≈ 4.98 µM)	6.95 (≈ 14.7 µM)	6.69 (≈ 14.2 µM)		COc1ccc(/C=C/c2cc(OC)cc(OC)c2/C=C/C(=O)/C=C/c2ccc([N+](=O)[O-])cc2)cc1				
2.24 (≈ 4.78 µM)	4.43 (≈ 9.45 µM)	6.06 (≈ 12.9 µM)		COc1ccc(/C=C/c2cc(OC)cc(OC)c2/C=C/C(=O)/C=C/c2ccc(C(C)C)cc2)cc1				
3.12 (≈ 7.3 µM)	9.17 (≈ 21.5 µM)	9.16 (≈ 21.4 µM)		COc1ccc(/C=C/c2cc(OC)cc(OC)c2/C=C/C(=O)/C=C/c2ccccn2)cc1				
1.48 (≈ 3.46 µM)	3.5 (≈ 8.19 µM)	3.48 (≈ 8.14 µM)		COc1ccc(/C=C/c2cc(OC)cc(OC)c2/C=C/C(=O)/C=C/c2cccnc2)cc1				
2.88 (≈ 8.51 µM)	8.41 (≈ 24.9 µM)	6.97 (≈ 20.6 µM)		COc1ccc(/C=C/c2cc(OC)cc(OC)c2/C=C/C(C)=O)cc1				
				COc1cc2c(c(OC)c1OC)-c1ccc(OC)c(=O)cc1[C@@H](NC(C)=O)CC2 [COLCHICINE]	2	3	85	
